# Species on record: Rattus norvegicus
# Test: Open TG-GATES - Regimen: Single
# Type: toxicity, organism-based, Sprague-Dawley
# Parameters: regimen Single, gender Male, age 6 weeks
# Conditions: in vivo, ip, 0 mg/kg, route intraperitoneal injection, dose 0 ug/Kg, dose level Control; for APTT / Bas / Eos / Fbg / Hb / Ht / Lym / MCH / MCHC / MCV / Mono / Neu / PT / Plat / RBC / Ret / WBC: tissue Blood; for KIDNEY_L / KIDNEY_R / KIDNEY_TOTAL: tissue Kidney; for LIVER: tissue Liver; for A/G / ALP / ALT / AST / BUN / CRE / Ca / Cl / DBIL / GLC / IP / K / LDH / Na / PL / RALB / TBIL / TC / TG / TP / gamma-GTP: tissue Plasma
compound,measurement,setting,value
CC(=O)N[C@H]1[C@@H](O[C@@H]2O[C@H](CC(O)[C@H]3O[C@@H](n4ccc(=O)[nH]c4=O)[C@H](O)[C@@H]3O)[C@H](O)[C@H](O)[C@H]2NC(=O)/C=C/CC(C)C)O[C@H](CO)[C@@H](N)[C@@H]1O (some centres not stated) [TUNICAMYCIN],TERMINAL_BW,3 h,221.9 g
same,APTT,3 h,21.5 s
same,Bas,3 h,0%
same,Eos,3 h,0.5%
same,Fbg,3 h,293.8 mg/dL
same,Hb,3 h,13 g/dL
same,Ht,3 h,39.6%
same,Lym,3 h,77%
same,MCH,3 h,21.1 pg
same,MCHC,3 h,32.9%
same,MCV,3 h,64.1 fL
same,Mono,3 h,2.8%
same,Neu,3 h,18.8%
same,PT,3 h,15.8 s
same,Plat,3 h,103.5 x10_4/uL
same,RBC,3 h,617.8 x10_4/ul
same,Ret,3 h,8.1%
same,WBC,3 h,129.5 x10_2/uL
same,KIDNEY_L,3 h,1 g
same,KIDNEY_R,3 h,1 g
same,KIDNEY_TOTAL,3 h,2 g
same,LIVER,3 h,10.3 g
same,A/G,3 h,1.2
same,ALP,3 h,1530.2 IU/L
same,ALT,3 h,45 IU/L
same,AST,3 h,75 IU/L
same,BUN,3 h,14 mg/dL
same,CRE,3 h,0.2 mg/dL
same,Ca,3 h,10.6 mg/dL
same,Cl,3 h,106.5 meq/L
same,DBIL,3 h,0 mg/dL
same,GLC,3 h,175.2 mg/dL
same,IP,3 h,8.4 mg/dL
same,K,3 h,4.4 meq/L
same,LDH,3 h,176.5 IU/L
same,Na,3 h,140.2 meq/L
same,PL,3 h,127.5 mg/dL
same,RALB,3 h,2.9 g/dL
same,TBIL,3 h,0.0125 mg/dL
same,TC,3 h,71.8 mg/dL
same,TG,3 h,72.5 mg/dL
same,TP,3 h,5.3 g/dL
same,gamma-GTP,3 h,1 IU/L
same,TERMINAL_BW,6 h,222.7 g
same,APTT,6 h,22.4 s
same,Bas,6 h,0%
same,Eos,6 h,0.4%
same,Fbg,6 h,306.8 mg/dL
same,Hb,6 h,13 g/dL
same,Ht,6 h,40.2%
same,Lym,6 h,75.2%
same,MCH,6 h,20.6 pg
same,MCHC,6 h,32.4%
same,MCV,6 h,63.4 fL
same,Mono,6 h,2%
same,Neu,6 h,22%
same,PT,6 h,15.4 s
same,Plat,6 h,114.6 x10_4/uL
same,RBC,6 h,634.2 x10_4/ul
same,Ret,6 h,7.9%
same,WBC,6 h,100.9 x10_2/uL
same,KIDNEY_L,6 h,1 g
same,KIDNEY_R,6 h,1 g
same,KIDNEY_TOTAL,6 h,2 g
same,LIVER,6 h,10.1 g
same,A/G,6 h,1.2
same,ALP,6 h,1339.6 IU/L
same,ALT,6 h,39.6 IU/L
same,AST,6 h,68.6 IU/L
same,BUN,6 h,11 mg/dL
same,CRE,6 h,0.1 mg/dL
same,Ca,6 h,10.9 mg/dL
same,Cl,6 h,104.8 meq/L
same,DBIL,6 h,0 mg/dL
same,GLC,6 h,186.8 mg/dL
same,IP,6 h,9.2 mg/dL
same,K,6 h,4.2 meq/L
same,LDH,6 h,142.8 IU/L
same,Na,6 h,142.4 meq/L
same,PL,6 h,133 mg/dL
same,RALB,6 h,2.9 g/dL
same,TBIL,6 h,0.018 mg/dL
same,TC,6 h,74.2 mg/dL
same,TG,6 h,63.2 mg/dL
same,TP,6 h,5.4 g/dL
same,gamma-GTP,6 h,1.2 IU/L
same,TERMINAL_BW,9 h,216.2 g
same,APTT,9 h,22.6 s
same,Bas,9 h,0%
same,Eos,9 h,0.6%
same,Fbg,9 h,299.2 mg/dL
same,Hb,9 h,13.1 g/dL
same,Ht,9 h,40.6%
same,Lym,9 h,81.2%
same,MCH,9 h,20.3 pg
same,MCHC,9 h,32.2%
same,MCV,9 h,63 fL
same,Mono,9 h,1.8%
same,Neu,9 h,15.8%
same,PT,9 h,15.7 s
same,Plat,9 h,118.2 x10_4/uL
same,RBC,9 h,643.6 x10_4/ul
same,Ret,9 h,7.7%
same,WBC,9 h,98.9 x10_2/uL
same,KIDNEY_L,9 h,1 g
same,KIDNEY_R,9 h,1 g
same,KIDNEY_TOTAL,9 h,1.9 g
same,LIVER,9 h,8.6 g
same,A/G,9 h,1.2
same,ALP,9 h,1451.4 IU/L
same,ALT,9 h,37.6 IU/L
same,AST,9 h,71 IU/L
same,BUN,9 h,11.2 mg/dL
same,CRE,9 h,0.1 mg/dL
same,Ca,9 h,10.3 mg/dL
same,Cl,9 h,104.8 meq/L
same,DBIL,9 h,0 mg/dL
same,GLC,9 h,195.4 mg/dL
same,IP,9 h,9.6 mg/dL
same,K,9 h,4.2 meq/L
same,LDH,9 h,158.4 IU/L
same,Na,9 h,141.8 meq/L
same,PL,9 h,128 mg/dL
same,RALB,9 h,2.8 g/dL
same,TBIL,9 h,0.024 mg/dL
same,TC,9 h,74.2 mg/dL
same,TG,9 h,54 mg/dL
same,TP,9 h,5.2 g/dL
same,gamma-GTP,9 h,1 IU/L
same,TERMINAL_BW,24 h,234.3 g
same,APTT,24 h,21.6 s
same,Bas,24 h,0%
same,Eos,24 h,1%
same,Fbg,24 h,295.2 mg/dL
same,Hb,24 h,12.7 g/dL
same,Ht,24 h,39.1%
same,Lym,24 h,78.6%
same,MCH,24 h,20.2 pg
same,MCHC,24 h,32.4%
same,MCV,24 h,62.4 fL
same,Mono,24 h,3.6%
same,Neu,24 h,16.2%
same,PT,24 h,16.2 s
same,Plat,24 h,119.3 x10_4/uL
same,RBC,24 h,626.8 x10_4/ul
same,Ret,24 h,7.3%
same,WBC,24 h,88.7 x10_2/uL
same,KIDNEY_L,24 h,1.1 g
same,KIDNEY_R,24 h,1.1 g
same,KIDNEY_TOTAL,24 h,2.1 g
same,LIVER,24 h,10.8 g
same,A/G,24 h,1.2
same,ALP,24 h,1584.8 IU/L
same,ALT,24 h,42.2 IU/L
same,AST,24 h,71.2 IU/L
same,BUN,24 h,16.6 mg/dL
same,CRE,24 h,0.1 mg/dL
same,Ca,24 h,10.5 mg/dL
same,Cl,24 h,105.2 meq/L
same,DBIL,24 h,0 mg/dL
same,GLC,24 h,184.4 mg/dL
same,IP,24 h,6.8 mg/dL
same,K,24 h,4.6 meq/L
same,LDH,24 h,146.4 IU/L
same,Na,24 h,141.2 meq/L
same,PL,24 h,136 mg/dL
same,RALB,24 h,3.1 g/dL
same,TBIL,24 h,0.008 mg/dL
same,TC,24 h,73.6 mg/dL
same,TG,24 h,70.8 mg/dL
same,TP,24 h,5.5 g/dL
same,gamma-GTP,24 h,1.8 IU/L
